Results: US20050277624A1, “Use of corticosteroids alone or in conjunction with nutritional therapy to reduce stress in animals” (priority 2004, published 2005)

Experiments:
[1] = Weight loss of calves during 8 h transport (Example 2); assay type: in vivo, crossbred calves (cattle); conditions: calves ~800 lb, dexamethasone i.m. 0.61 mg per 50 lb, NT 1 kg/animal 24 h prior
Text: The study in Example 1 was repeated with the addition of a nutritional supplement treatment group. The calves were raised at the Agriculture and Agri-Food Canada Lacombe Research Centre (Lacombe, Alberta, Canada) in accordance with standard operating procedures representative of the cattle industry. The breed, sex and weight of the calves were similar to those used in Example 1. Crossbred calves weighing approximately 800 lb (363 kg) on average were used.
Twenty-four hours prior to transport, the calves were assigned to the nutritional supplement groups and were offered 1 kg/animal of nutritional supplement or a “receiver calf” preparation (Supplement 1(d) as described in U.S. Pat. Nos. 5,505,968 and 5,728,675 to Schaefer et al. with differences being the selection of flavoring, form of an extruded pellet, and carrier being alfalfa) along with their regular feed ration (cereal grain silage). All calves in all treatments were kept on normal feed and water rations prior to transport.
Weights of all animals were recorded pre- and post-transport and metabolic activity was assessed by infrared thermographic analyses of the eye region. […] The animals were then loaded onto a commercial transport carrier and transported for 8 h prior to being offloaded, re-weighed, re-scanned with infrared and re-sampled for cortisol. […]

calves = test: Behavioural scans (lying and eating frequency) for three days following transport (Example 3); assay type: in vivo; conditions: three day average following transport
Text: Corticosteroid treatment in conjunction with a nutritional supplement appears to enhance recovery from transport stress. The behavioral responses of animals were monitored following transport. Calves were allocated among five treatment groups as follows:
For all of the above groups, ten behavioural scans lasting one minute each were completed each day (pm) for three days following transport, thereby accumulating a total of 2,280 animal observations. Frequency measures of animals lying and eating were collected. It is well known to those skilled in the art that when animals are fatigued or morbid, they tend to lie down (Kilbour et al., 1984; Agri-Food Research Council Canadian Food Inspection Agency, 2001).

[2] = Weight loss of calves during 10 h transport (Example 1); assay type: in vivo, crossbred calves (cattle); conditions: calves ~600 lb, dexamethasone i.m. 2 mg per 50 lb body weight
Text: Forty head of crossbred calves, both steers and heifers, and weighing approximately 600 lb (272 kg) on average were used. The calves were raised at the Agriculture and Agri-Food Canada Lacombe Research Centre (Lacombe, Alberta, Canada) in accordance with standard operating procedures representative of the cattle industry. The calves were randomly divided into two treatment groups designated as control (n=20) and dexamethasone-treated (n=20) and kept on standard feed (cereal grain silage) and water rations prior to transport.
Weights of all animals were recorded pre- and post-transport, metabolic activity was assessed by infrared thermographic analyses (IRT) of the eye region, and a salivary swab collection made for cortisol measurement.
The animals were subsequently loaded onto a commercial transport and transported for 10 h prior to being off loaded at the Agriculture and Agri-Food Canada Kamloops Research Centre (Kamloops, British Columbia, Canada). On arrival, the calves were again weighed, infrared images captured and a salivary swab collected. The animals were held overnight in pens with ad libitum access to water and cereal grain silage, and were again monitored for weight, thermal changes and salivary cortisol the following morning.

C[C@@H]1C[C@H]2[C@@H]3CCC4=CC(=O)C=C[C@]4(C)[C@@]3(F)[C@@H](O)C[C@]2(C)[C@@]1(O)C(=O)CO [dexamethasone]
weight loss during transport ([1]; control lost 21.5 kg): 17.6 kg | weight loss during transport ([1]; control lost 47.36 lb, P<0.05): 38.87 lb | Eating Frequency (calves; control away 20%, control home 78%): 24% | Lying Frequency (calves; control away 97%, control home 23%): 0% | weight loss during transport ([2]; control lost 5%): 3.2 % body weight | weight loss during transport ([2]; control lost 13.8 kg): 8.7 kg | weight loss during transport ([2]; control lost 30.5 lb, P<0.05): 19.2 lb
